Measurements as given in patent EP4703354A1, “COMPOUND AS CCR6 ANTAGONIST, AND PHARMACEUTICAL COMPOSITION AND USE THEREOF” (Wuhan Createrna Science and Technology Co.,Ltd., priority 2023, dated 2024).

Columns and labels:
[1] = in vitro liver microsome metabolic stability, beagle dog; type: in vitro ADME; conditions: Beagle dog liver microsomes, 37°C
Method in brief: (§1)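 Test compound at 1 µM final (100 µM working solution diluted 1:100) incubated at 37°C with liver microsomes in pH 7.4 phosphate buffer with NADP/G6P/G6PDH/MgCl2 regenerating system; sampled 0–30 min, LC-MS/MS vs internal standard. T1/2 = 0.693/k from remaining-fraction decay.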

[2] = in vitro liver microsome metabolic stability, human; type: in vitro ADME; conditions: Human liver microsomes, 37°C
Method in brief: as §1

human CCR6 = target: T1, human CCR6 (Homo sapiens, UniProt P51684); assay: human CCR6 calcium flux activity (FLIPR, HEK293 cells stably expressing human CCR6, CCL20 stimulation); type: cell-based; conditions: HEK293 cells stably expressing human CCR6, EC80 human MIP-3 alpha/CCL20; read-out: CCR6 inhibitory activity, IC50
T1 construct: expressed in transfected cells; host or cells: HEK293
T1 sequence (P51684 1-374): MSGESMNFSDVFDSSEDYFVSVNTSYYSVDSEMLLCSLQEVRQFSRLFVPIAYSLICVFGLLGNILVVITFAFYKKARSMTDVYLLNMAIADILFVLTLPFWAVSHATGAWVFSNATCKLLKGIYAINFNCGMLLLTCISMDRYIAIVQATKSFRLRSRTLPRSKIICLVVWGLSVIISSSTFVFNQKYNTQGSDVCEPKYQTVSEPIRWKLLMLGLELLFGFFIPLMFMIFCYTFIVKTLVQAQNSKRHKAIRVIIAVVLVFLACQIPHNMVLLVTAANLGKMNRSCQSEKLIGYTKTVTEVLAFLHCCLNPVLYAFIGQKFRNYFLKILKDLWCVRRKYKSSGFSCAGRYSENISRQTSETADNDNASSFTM
Method in brief: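 Read-out is the RFUMax−RFUMin calcium signal (494/516 nm, 90 s) after EC80 CCL20 addition, fitted four-parameter for IC50. Before agonist, Fluo-4 Direct-loaded cells sat with compound 50 min at 37 °C plus 10 min at room temperature.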

[3] = in vitro liver microsome metabolic stability, rat; type: in vitro ADME; conditions: Rat liver microsomes, 37°C
Method in brief: as §1

[4] = in vitro liver microsome metabolic stability, mouse; type: in vitro ADME; conditions: Mouse liver microsomes, 37°C
Experimental: Preparation of working solutions for test compounds and standards: An appropriate amount of the compound was accurately weighed and dissolved in a corresponding volume of suitable solvent to prepare 1 mM stock solutions of the test compounds and standards. The stock solutions were then diluted with appropriate solvent to obtain 100 µM working solutions of the test compounds, ensuring that the DMSO content in the working solutions remained below 10%.
The internal standard compound testosterone (or tolbutamide) and its corresponding solvent, internal standard concentration (200 ng/mL), were selected based on the properties of the test compound.
• Solution A: 0.1 mol/L K2HPO4 (2.28 g K2HPO4·3H2O was dissolved in 100 mL of double-distilled water); • Solution B: 0.1 mol/L KH2PO4 (1.36 g KH2PO4 was dissolved in 100 mL of double-distilled water); • 80.2 mL of Solution A and 19.8 mL of Solution B were mixed thoroughly, and the pH was adjusted to 7.4.
37.5 mg of glycine was weighed, dissolved in 100 mL of ultrapure water, and adjusted to pH 8.0 with NaOH.
1.25 mg of glucose-6-phosphate dehydrogenase (400 U/mg) was weighed (the specific amount weighed was calculated based on the activity of the purchased glucose-6-phosphate dehydrogenase), dissolved in 1 mL of glycine buffer to a concentration of 500 U/mL, aliquoted into 20 µL per tube, and stored at -20°C for future use.
7.83 mg of NADP, 0.06 mL of D-glucose-6-phosphate (260 mg/mL), and 10.17 mg of MgCl2·6H2O were precisely weighed.
The mixture was dissolved in 1 mL of pure water. The cofactor ratio composition: NADP 10 mM, D-glucose-6-phosphate 60 mM, MgCl2·6H2O 50 mM.
The reaction system (taking a 500 µL system as an example) was composed of the following solution ratios: 416.5 µL phosphate buffer, 5 µL compound working solution, 25 µL liver microsomes, 3.5 µL glucose-6-phosphate dehydrogenase, and 50 µL cofactor solution. The total incubation volume could be adjusted according to experimental requirements.
416.5 µL of phosphate buffer was taken, 25 µL of liver microsomes, 3.5 µL of glucose-6-phosphate dehydrogenase, and 50 µL of cofactor solution were added, vortexed twice to mix, and preincubated in a 37°C water bath for 5 minutes. Then, 5 µL of the test compound working solution was added, vortexed twice to mix, each time for 2-3 seconds, and placed in a 37°C water bath to initiate the reaction, with two parallel samples set. At 0.5 min, 1 min, 2 min, 5 min, 15 min, and 30 min after the reaction, 50 µL of the mixture was taken and added to centrifuge tubes containing 200 µL of 0°C pre-cooled internal standard working solution to terminate the reaction, vortexed for 1 minute to mix, and centrifuged at 13,000 rpm for 10 minutes in a 4°C pre-cooled high-speed centrifuge. The supernatant was collected for analysis. After the compound was added and vortex-mixed, 50 µL of the mixture was rapidly transferred to a centrifuge tube containing 200 µL of a pre-cooled (0°C) internal standard working solution to terminate the reaction, vortex-mixed for 1 minute, and used as the relative zero-point sample (relative to the standard group). The sample was then placed into a 37°C water bath to initiate the reaction, and timing was started.
The sample analysis of the test compound was performed using the liquid chromatography-tandem mass spectrometry (LCMS/MS) method. The semi-quantitative determination was performed using the ratio of the analyte peak area to the internal standard peak area. The retention times of the analyte and internal standard, chromatogram acquisition, and chromatogram integration were processed using Analyst software.
The in vitro elimination rate constant k of the test compound and the control compound was determined by converting the ratio of the peak area of the test compound to the internal standard into the remaining rate, and T1/2 was then calculated according to the following formula. T1/2 = (Ln2)/(k) = (0.693)/(k) [formula] Table 3. […]

## CN(C)C(=O)c1nccc(Nc2c(NC(c3nc(F)ccc3F)C3(C)CC(F)(F)CO3)c(=O)c2=O)c1O (centres unmarked) [compound 062, 4-((2-(((4,4-difluoro-2-methyltetrahydrofuran-2-yl)(3,6-difluoropyridin-2-yl)methyl)amino)-3,4-dioxocyclobut-1-en-1-yl)amino)-3-hydroxy-N,N-dimethylpicolinamide]
[1]
  Liver microsome T1-2 (min) Beagle dog: 1250.74 min
[2]
  Liver microsome T1-2 (min) Human: 1048.05 min
Human CCR6
  IC50: 32.9 nM
[3]
  Liver microsome T1-2 (min) Rat: 801.17 min
[4]
  Liver microsome T1-2 (min) Mouse: 228.33 min
